Read-outs that look alike come from different tables or passages of the source. Positions of bridges follow the written chain, without caps; N, C: chain ends. Non-standard residues stand in square brackets, D forms with d. Residues, ends and D or L forms follow the SMILES beside them. Sec = N[C@@H](C[SeH])C(=O)O
How the values were obtained:
[1] = molecular target: T1, Natriuretic Peptide Receptor-A (NPR-A) signaling in MDCK cells (Canis lupus familiaris, UniProt A0A8I3MHU3); assay type: cell-based, canine; details: for EC50: read-out: EC50 (M) ± Standard Error
T1 sequence (A0A8I3MHU3 32-1060): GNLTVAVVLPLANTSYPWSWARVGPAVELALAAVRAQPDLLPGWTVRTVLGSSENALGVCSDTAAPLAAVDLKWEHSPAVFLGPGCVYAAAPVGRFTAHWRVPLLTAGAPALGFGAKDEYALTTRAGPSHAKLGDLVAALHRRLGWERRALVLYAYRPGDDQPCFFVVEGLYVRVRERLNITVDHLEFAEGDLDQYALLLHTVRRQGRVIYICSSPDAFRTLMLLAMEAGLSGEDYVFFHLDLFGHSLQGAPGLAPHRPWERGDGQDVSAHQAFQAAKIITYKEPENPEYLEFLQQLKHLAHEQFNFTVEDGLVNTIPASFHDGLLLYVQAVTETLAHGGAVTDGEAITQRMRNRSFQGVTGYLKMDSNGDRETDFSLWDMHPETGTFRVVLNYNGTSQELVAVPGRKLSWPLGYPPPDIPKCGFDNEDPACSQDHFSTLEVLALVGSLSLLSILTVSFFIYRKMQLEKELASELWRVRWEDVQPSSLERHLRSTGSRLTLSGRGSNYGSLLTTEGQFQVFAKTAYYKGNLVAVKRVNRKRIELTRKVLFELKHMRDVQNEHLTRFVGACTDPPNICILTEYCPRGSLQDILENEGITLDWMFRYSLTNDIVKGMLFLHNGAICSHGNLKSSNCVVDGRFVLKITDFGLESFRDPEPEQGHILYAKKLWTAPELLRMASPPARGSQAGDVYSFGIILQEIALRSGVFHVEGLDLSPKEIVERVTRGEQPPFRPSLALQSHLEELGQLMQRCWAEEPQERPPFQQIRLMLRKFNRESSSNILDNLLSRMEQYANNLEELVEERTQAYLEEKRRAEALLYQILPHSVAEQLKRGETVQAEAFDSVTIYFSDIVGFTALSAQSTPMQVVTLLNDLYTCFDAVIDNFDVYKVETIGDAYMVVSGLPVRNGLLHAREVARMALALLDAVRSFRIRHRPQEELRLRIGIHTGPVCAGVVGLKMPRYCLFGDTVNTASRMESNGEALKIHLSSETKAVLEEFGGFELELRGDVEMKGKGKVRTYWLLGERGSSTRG

conscious rabbits = test: Blood pressure and heart rate in conscious rabbits, intravenous infusion dose-response (Example 8)
[2] = stimulation of cGMP accumulation in MDCK cells
[3] = after 1 hour recovery period, Table 10A

Compound | −Log10 EC50 (pEC50) ± Standard Error [1, 2] | EC50 [1, 2] | further results
CC[C@H](C)[C@@H]1NC(=O)[C@H](CCCNC(=N)N)NC(=O)[C@H](CC(=O)O)NC(=O)[C@H]([C@@H](C)CC)NC(=O)[C@H](CCCCN)NC(=O)[C@H](Cc2c[nH]cn2)NC(=O)CNC(=O)[C@H](Cc2ccccc2)NC(=O)[C@@H](NC(=O)CNC(=O)[C@H](CC(N)=O)NC(=O)[C@@H]2CCCN2C(=O)[C@@H]2CCCN2C(=O)CNC(=O)[C@H](CCCCN)NC(=O)[C@H](CCCCN)NC(=O)[C@@H]2CCCN2C(=O)[C@@H]2CCCN2C(=O)[C@H](CCCCN)NC(=O)[C@H](CC(N)=O)NC(=O)[C@H](CC(=O)O)NC(=O)CN)CSSC[C@@H](C(=O)N[C@@H](CC(N)=O)C(=O)N[C@@H](CCCCN)C(=O)N[C@H](C(=O)N[C@@H](CC(=O)O)C(=O)N[C@@H](CC(=O)O)C(=O)N[C@@H](CC(N)=O)C(=O)N[C@@H](CCCCN)C(=O)NCC(=O)O)C(C)C)NC(=O)CNC(=O)[C@H](CC(C)C)NC(=O)CNC(=O)[C@H](CO)NC(=O)[C@H](Cc2c[nH]cn2)NC(=O)[C@H](CO)NC(=O)CNC1=O [Lebetin] (H-GDNKPPKKGPPNGCFGHKIDRIGSHSGLGCNKVDDNKG-OH; disulfide 14-30; N-terminus and C-terminus assumed) | 7.637 ± 0.1619 | 2.67e-08 M | 
CC[C@H](C)[C@@H]1NC(=O)[C@H](CCCNC(=N)N)NC(=O)[C@H](CC(=O)O)NC(=O)[C@H](CC(C)C)NC(=O)[C@@H]2CCCN2C(=O)[C@H](Cc2ccccc2)NC(=O)CNC(=O)[C@H](Cc2ccccc2)NC(=O)[C@@H](NC(=O)CNC(=O)[C@H](CCCCN)NC(=O)[C@H](CO)NC(=O)[C@@H](NC(=O)[C@H](CCCCN)NC(=O)[C@H](CO)NC(=O)[C@H](CC(=O)O)NC(=O)[C@@H](N)CO)[C@@H](C)CC)CSSC[C@@H](C(=O)N[C@@H](CC(N)=O)C(=O)N[C@@H](CCCNC(=N)N)C(=O)N[C@H](C(=O)N[C@@H](CCSC)C(=O)N[C@@H](CCC(N)=O)C(=O)N[C@@H](CC(N)=O)C(=O)N2CCC[C@H]2C(=O)N2CCC[C@H]2C(=O)N[C@@H](CCCCN)C(=O)N[C@@H](CCCCN)C(=O)N[C@@H](Cc2ccccc2)C(=O)N[C@@H](CO)C(=O)NCC(=O)N[C@@H](CCC(=O)O)C(=O)O)[C@@H](C)CC)NC(=O)CNC(=O)[C@H](CC(C)C)NC(=O)CNC(=O)[C@H](CO)NC(=O)[C@H](C(C)C)NC(=O)[C@H](CO)NC(=O)CNC1=O [Peptide K7S6-TNPc] (H-SDSKISKGCFGFPLDRIGSVSGLGCNRIMQNPPKKFSGE-OH; disulfide 9-25; N-terminus assumed) | 7.567 ± 0.4397 | 5.24e-08 M | 
CC[C@H](C)[C@@H]1NC(=O)[C@H](CCCNC(=N)N)NC(=O)[C@H](CC(=O)O)NC(=O)[C@H]([C@@H](C)CC)NC(=O)[C@H](CCCCN)NC(=O)[C@H](Cc2c[nH]cn2)NC(=O)CNC(=O)[C@H](Cc2ccccc2)NC(=O)[C@@H](NC(=O)CNC(=O)[C@H](CC(=O)O)NC(=O)[C@@H]2CCCN2C(=O)[C@H](C)NC(=O)[C@H](CCCCN)NC(=O)[C@H](CCCCN)NC(=O)[C@H](CCCCN)NC(=O)[C@@H]2CCCN2C(=O)[C@@H]2CCCN2C(=O)[C@H](CCC(=O)O)NC(=O)[C@H](CC(N)=O)NC(=O)[C@H](CCC(=O)O)NC(=O)CN)CSSC[C@@H](C(=O)N[C@@H](CC(N)=O)C(=O)N[C@@H](CCCCN)C(=O)N[C@@H](Cc2ccccc2)C(=O)N[C@@H](CCCCN)C(=O)N2CCC[C@H]2C(=O)NCC(=O)N[C@@H](Cc2c[nH]cn2)C(=O)O)NC(=O)CNC(=O)[C@H](CC(C)C)NC(=O)CNC(=O)[C@H](CO)NC(=O)[C@H](Cc2c[nH]cn2)NC(=O)[C@H](CO)NC(=O)CNC1=O [PNP, reference compound] (H-GENEPPKKKAPDGCFGHKIDRIGSHSGLGCNKFKPGH-OH; disulfide 14-30) | 6.660 ± 0.4500 | 3.47e-07 M | 
CC[C@H](C)[C@H](NC(=O)[C@H](CCCCN)NC(=O)[C@H](CO)NC(=O)[C@H](CC(=O)O)NC(=O)[C@@H](N)CO)C(=O)NCC(=O)N[C@@H](CC(N)=O)C(=O)NCC(=O)N[C@H]1CSSC[C@@H](C(=O)N[C@@H](CC(N)=O)C(=O)N[C@@H](CCCNC(=N)N)C(=O)N2CCC[C@H]2C(=O)N[C@@H](CCSC)C(=O)N[C@@H](CCC(N)=O)C(=O)N[C@@H](CC(N)=O)C(=O)N2CCC[C@H]2C(=O)N2CCC[C@H]2C(=O)N[C@@H](CCCCN)C(=O)N[C@@H](CCCCN)C(=O)N[C@@H](Cc2ccccc2)C(=O)N[C@@H](CO)C(=O)NCC(=O)N[C@@H](CCC(=O)O)C(=O)O)NC(=O)CNC(=O)[C@H](CC(C)C)NC(=O)CNC(=O)[C@H](CO)NC(=O)[C@H](C(C)C)NC(=O)[C@H](CO)NC(=O)CNC(=O)[C@H]([C@@H](C)CC)NC(=O)[C@H](CCCNC(=N)N)NC(=O)[C@H](CC(=O)O)NC(=O)[C@H](CC(C)C)NC(=O)[C@@H]2CCCN2C(=O)[C@H](Cc2ccccc2)NC(=O)CNC(=O)[C@H](Cc2ccccc2)NC1=O [Peptide I28P-TNPc] (H-SDSKIGNGCFGFPLDRIGSVSGLGCNRPMQNPPKKFSGE-OH; disulfide 9-25; N-terminus assumed) | 5.995 ± 0.2450 | 1.19e-06 M | 
CC[C@H](C)[C@H](NC(=O)[C@H](CCCCN)NC(=O)[C@H](CO)NC(=O)[C@H](CC(=O)O)NC(=O)[C@@H](N)CO)C(=O)NCC(=O)N[C@@H](CC(N)=O)C(=O)NCC(=O)N[C@H]1CSSC[C@@H](C(=O)N[C@@H](CC(N)=O)C(=O)N[C@@H](CCCNC(=N)N)C(=O)N[C@H](C(=O)N[C@@H](CCSC)C(=O)N[C@@H](CCC(N)=O)C(=O)N[C@@H](CC(N)=O)C(=O)N[C@@H](CCCNC(=N)N)C(=O)N2CCC[C@H]2C(=O)N[C@@H](CCCCN)C(=O)N[C@@H](CCCCN)C(=O)N[C@@H](Cc2ccccc2)C(=O)N[C@@H](CO)C(=O)NCC(=O)N[C@@H](CCC(=O)O)C(=O)O)[C@@H](C)CC)NC(=O)CNC(=O)[C@H](CC(C)C)NC(=O)CNC(=O)[C@H](CO)NC(=O)[C@H](C(C)C)NC(=O)[C@H](CO)NC(=O)CNC(=O)[C@H]([C@@H](C)CC)NC(=O)[C@H](CCCNC(=N)N)NC(=O)[C@H](CC(=O)O)NC(=O)[C@H](CC(C)C)NC(=O)[C@@H]2CCCN2C(=O)[C@H](Cc2ccccc2)NC(=O)CNC(=O)[C@H](Cc2ccccc2)NC1=O [Peptide P32R-TNPc] (H-SDSKIGNGCFGFPLDRIGSVSGLGCNRIMQNRPKKFSGE-OH; disulfide 9-25; N-terminus assumed) | 7.680 ± 0.5322 | 9.91e-08 M | 
CC[C@H](C)[C@H](NC(=O)[C@H](CCCCN)NC(=O)[C@H](CO)NC(=O)[C@H](CC(=O)O)NC(=O)[C@@H](N)CO)C(=O)NCC(=O)N[C@@H](CC(N)=O)C(=O)NCC(=O)N[C@H]1C[Se][Se]C[C@@H](C(=O)N[C@@H](CC(N)=O)C(=O)N[C@@H](CCCNC(=N)N)C(=O)N[C@H](C(=O)N[C@@H](CCSC)C(=O)N[C@@H](CCC(N)=O)C(=O)N[C@@H](CC(N)=O)C(=O)N2CCC[C@H]2C(=O)N2CCC[C@H]2C(=O)N[C@@H](CCCCN)C(=O)N[C@@H](CCCCN)C(=O)N[C@@H](Cc2ccccc2)C(=O)N[C@@H](CO)C(=O)NCC(=O)N[C@@H](CCC(=O)O)C(=O)O)[C@@H](C)CC)NC(=O)CNC(=O)[C@H](CC(C)C)NC(=O)CNC(=O)[C@H](CO)NC(=O)[C@H](C(C)C)NC(=O)[C@H](CO)NC(=O)CNC(=O)[C@H]([C@@H](C)CC)NC(=O)[C@H](CCCNC(=N)N)NC(=O)[C@H](CC(=O)O)NC(=O)[C@H](CC(C)C)NC(=O)[C@@H]2CCCN2C(=O)[C@H](Cc2ccccc2)NC(=O)CNC(=O)[C@H](Cc2ccccc2)NC1=O [Sec2-TNPc] (H-SDSKIGNG[Sec]FGFPLDRIGSVSGLG[Sec]NRIMQNPPKKFSGE-OH; diselenide 9-25) |  |  | −Log10 EC50 (pEC50) ± Standard Error [1]: 7.463 ± 0.4096; EC50 [1]: 6.39e-08 M
SDSKIGNGCFGFPLDHIGSVSGLGCNRIMQNPPKKFSGE (A portion of a natriuretic peptide) [TNPc R16H] |  |  | Recovery (MAP) (conscious rabbits; [3]): 67.6 mm Hg; Recovery Delta SED (MAP) (conscious rabbits; [3]): 2.0 ± 3.9 mm Hg; reduction of MAP compared to vehicle, in words (conscious rabbits; highest dose): did significantly reduce MAP; MAP at final dose (conscious rabbits; highest dose, Table 10A): 65.6 mm Hg; Treatment Effect, change of mean blood pressure during the infusion (conscious rabbits; highest dose, Table 10A, groups 1, 2A and 3): −7.3 mm Hg

— patent publication US8058242B2, “Chimeric proteins with natriuretic activity” (The University of Queensland, priority 2004, dated 2011)
